Activity calls are given as the source filed them. No cut-off for these calls is given here.
Columns and labels:
4T1 [1] = assay: Cytotoxicity against mouse 4T1 cells assessed as reduction in cell viability incubated for 24 hrs by CCK-8 assay; assay type: toxicity, cell-based; details: 4t1, 24 h
BMDM [2] = assay: Induction of macrophage repolarization in FR-beta expressing IL-4 differentiated M2 phenotype mouse BMDM cells assessed as reprogramming to M1 phenotype by measuring upregulation of MyD88 expression at 10 nM incubated for 24 hrs by western blot analysis; assay type: functional, cell-based
Mus musculus [3] = assay: In vivo transition from anti-inflammatory to pro-inflammatory phenotypes in BALB/c mouse xenografted with mouse 4T1 cells assessed as upregulation in proportion of CD8+ cells at 1 mg/kg, iv qd for 14 days by flow cytometry; assay type: functional, organism-based; details: time 14.0 day
BMDM [4] = assay: Induction of macrophage repolarization in FR-beta expressing IL-4 differentiated M2 phenotype mouse BMDM cells assessed as reprogramming to M1 phenotype by measuring upregulation of IL-6 level at 10 nM incubated for 24 hrs by ELISA; assay type: functional, cell-based
BMDM [5] = assay: Induction of macrophage repolarization in FR-beta expressing IL-4 differentiated M2 phenotype mouse BMDM cells assessed as reprogramming to M1 phenotype by measuring downregulation of IL-10 mRNA expression at 10 nM incubated for 24 hrs by RT-qPCR analysis; assay type: functional, cell-based
BMDM [6] = assay: Induction of macrophage repolarization in FR-beta expressing IL-4 differentiated M2 phenotype mouse BMDM cells assessed as reprogramming to M1 phenotype by measuring downregulation of CD206 mRNA expression at 10 nM incubated for 24 hrs by RT-qPCR analysis; assay type: functional, cell-based
[7] = Stability of the compound in PBS measured at 4 degC and for 15 days; assay type: physicochemical; details: time 15 day, read-out: Stability
[8] = Stability of the compound in mouse plasma at 5 uM and measured at 37 degC and for up to 12 hrs by HPLC analysis; assay type: ADME, cell-free; details: read-out: Stability
4T1 [9] = assay: Antitumor activity against mouse 4T1 cells xenografted in BALB/c mouse assessed as inhibition of tumor growth at 1 mg/kg, iv qd for 14 days and measured every day by digital caliper analysis; assay type: functional, organism-based; details: time 14.0 day
BMDM [10] = assay: Induction of macrophage repolarization in FR-beta expressing IL-4 differentiated M2 phenotype mouse BMDM cells assessed as reprogramming to M1 phenotype by measuring downregulation of Arg1 expression at 10 nM incubated for 24 hrs by western blot analysis; assay type: functional, cell-based
Mus musculus [11] = assay: In vivo transition from anti-inflammatory to pro-inflammatory phenotypes in BALB/c mouse xenografted with mouse 4T1 cells assessed as CD4+ cells population at 1 mg/kg, iv qd for 14 days by flow cytometry; assay type: functional, organism-based; details: time 14.0 day
[12] = Toxicity against BALB/c mouse xenografted with mouse 4T1 cells assessed as heightened inflammatory response in lung at 1 mg/kg, iv qd for 14 days by Hematoxylin-Eosin staining based analysis; assay type: organism-based; details: in vivo, 336 h, time 14 day
BMDM [13] = assay: Induction of macrophage repolarization in FR-beta expressing IL-4 differentiated M2 phenotype mouse BMDM cells assessed as reprogramming to M1 phenotype by measuring upregulation of iNOS mRNA expression at 10 nM incubated for 24 hrs by RT-qPCR analysis; assay type: functional, cell-based
HUVEC = assay: Cytotoxicity against human HUVEC cells assessed as reduction in cell viability incubated for 24 hrs by CCK-8 assay; assay type: toxicity, cell-based
Mus musculus [14] = assay: In vivo transition from anti-inflammatory to pro-inflammatory phenotypes in BALB/c mouse xenografted with mouse 4T1 cells assessed as decrease in proportion of Ly6C+ and Ly6G+ cells within CD45+ population at 1 mg/kg, iv qd for 14 days by flow cytometry; assay type: functional, organism-based; details: time 14.0 day
[15] = Cytotoxicity against mouse BMDM cells assessed as reduction in cell viability incubated for 24 hrs by CCK-8 assay; assay type: toxicity, cell-based
BMDM [16] = assay: Induction of macrophage repolarization in FR-beta expressing IL-4 differentiated M2 phenotype mouse BMDM cells assessed as reprogramming to M1 phenotype by measuring TNF-alpha level at 10 nM incubated for 24 hrs by ELISA; assay type: functional, cell-based
BMDM [17] = assay: Induction of macrophage repolarization in FR-beta expressing IL-4 differentiated M2 phenotype mouse BMDM cells assessed as reprogramming to M1 phenotype by measuring downregulation of CD206 expression at 10 nM incubated for 24 hrs by western blot analysis; assay type: functional, cell-based
BMDM [18] = assay: Induction of macrophage repolarization in FR-beta expressing IL-4 differentiated M2 phenotype mouse BMDM cells assessed as reprogramming to M1 phenotype by measuring upregulation of iNOS expression at 10 nM incubated for 24 hrs by western blot analysis; assay type: functional, cell-based
[19] = Toxicity against BALB/c mouse xenografted with mouse 4T1 cells assessed as pathological changes in heart at 1 mg/kg, iv qd for 14 days by Hematoxylin-Eosin staining based analysis; assay type: organism-based; details: in vivo, 336 h, time 14 day
BMDM [20] = assay: Induction of macrophage repolarization in FR-beta expressing IL-4 differentiated M2 phenotype mouse BMDM cells assessed as reprogramming to M1 phenotype by measuring downregulation of IL-10 level at 10 nM incubated for 24 hrs by ELISA; assay type: functional, cell-based
BMDM [21] = assay: Induction of macrophage repolarization in FR-beta expressing IL-4 differentiated M2 phenotype mouse BMDM cells assessed as reprogramming to M1 phenotype by measuring upregulation of IL-6 mRNA expression at 10 nM incubated for 24 hrs by RT-qPCR analysis; assay type: functional, cell-based
[22] = Toxicity against BALB/c mouse xenografted with mouse 4T1 cells assessed as effect on body weight at 1 mg/kg, iv qd for 14 days and measured every day; assay type: organism-based; details: in vivo, 336 h, time 14 day
[23] = Toxicity against BALB/c mouse xenografted with mouse 4T1 cells assessed as pathological changes in kidney at 1 mg/kg, iv qd for 14 days by Hematoxylin-Eosin staining based analysis; assay type: organism-based; details: in vivo, 336 h, time 14 day
BMDM [24] = assay: Induction of macrophage repolarization in FR-beta expressing IL-4 differentiated M2 phenotype mouse BMDM cells assessed as reprogramming to M1 phenotype by measuring TNF-alpha mRNA expression at 10 nM incubated for 24 hrs by RT-qPCR analysis; assay type: functional, cell-based
[25] = Prodrug release assessed as IMDQ formation in presence of 10 mM GSH and measured after 1 to 8 hrs by HPLC analysis; assay type: ADME; details: time 1-8 hrs
BMDM [26] = assay: Induction of macrophage repolarization in FR-beta expressing IL-4 differentiated M2 phenotype mouse BMDM cells assessed as reprogramming to M1 phenotype by measuring downregulation of Arg1 mRNA expression at 10 nM incubated for 24 hrs by RT-qPCR analysis; assay type: functional, cell-based
[27] = Toxicity against BALB/c mouse xenografted with mouse 4T1 cells assessed as pathological changes in spleen at 1 mg/kg, iv qd for 14 days by Hematoxylin-Eosin staining based analysis; assay type: organism-based; details: in vivo, 336 h, time 14 day
[28] = Toxicity against BALB/c mouse xenografted with mouse 4T1 cells assessed as pathological changes in liver at 1 mg/kg, iv qd for 14 days by Hematoxylin-Eosin staining based analysis; assay type: organism-based; details: in vivo, 336 h, time 14 day
[29] = Toxicity against BALB/c mouse assessed as increase in TNF-alpha level in plasma at 20 ug, iv measured after 2 hrs by ELISA; assay type: organism-based; details: in vivo, dose 20 µg
BMDM [30] = assay: Induction of macrophage repolarization in FR-beta expressing IL-4 differentiated M2 phenotype mouse BMDM cells assessed as reprogramming to M1 phenotype by measuring upregulation of TLR7 expression at 10 nM incubated for 24 hrs by western blot analysis; assay type: functional, cell-based
[31] = Toxicity against BALB/c mouse assessed as increase in IL-6 level in plasma at 20 ug, iv measured after 2 hrs by ELISA; assay type: organism-based; details: in vivo, dose 20 µg
[32] = Prodrug release assessed as IMDQ-SH formation in presence of 10 mM GSH and measured within 1 hr by HPLC analysis; assay type: ADME
BMDM [33] = assay: Induction of macrophage repolarization in FR-beta expressing IL-4 differentiated M2 phenotype mouse BMDM cells assessed as reprogramming to M1 phenotype by measuring upregulation of TLR7 mRNA expression at 10 nM incubated for 24 hrs by RT-qPCR analysis; assay type: functional, cell-based
4T1 [34] = assay: Antitumor activity against mouse 4T1 cells xenografted in BALB/c mouse assessed as lifespan of animal's survival at 1 mg/kg, iv qd for 14 days; assay type: functional; details: time 14 day
Mus musculus [35] = assay: In vivo repolarization of macrophages from M2 phenotype to M1 phenotype in BALB/c mouse xenografted with mouse 4T1 cells assessed as increase in M1 (F4/80+CD11b+CD86+) to M2 (F4/80+CD11b+CD206+) macrophage ratio in tumor at 1 mg/kg, iv qd for 14 days by flow cytometry; assay type: functional, organism-based; details: time 14.0 day

| Compound | Activity (4T1 [1]) | Activity (BMDM [2]) | Activity (Mus musculus [3]) | Activity (BMDM [4]) | Activity (BMDM [5]) | Activity (BMDM [6]) | remaining at 360 h [7] | remaining at 12 h, 5 µM [8] | Activity (4T1 [9]) | Activity (BMDM [10]) | Activity (Mus musculus [11]) | Activity [12] | Activity (BMDM [13]) | Activity (HUVEC) | Activity (Mus musculus [14]) | Activity [15] | Activity (BMDM [16]) | Activity (BMDM [17]) | Activity (BMDM [18]) | Activity [19] | further results |
| --- | --- | --- | --- | --- | --- | --- | --- | --- | --- | --- | --- | --- | --- | --- | --- | --- | --- | --- | --- | --- | --- |
| CCCCc1nc2c(N)nc3ccccc3c2n1Cc1ccc(CNC(=O)OCCSSC[C@H](NC(=O)CC[C@H](NC(=O)CNC(=O)Cc2cc3c(=O)[nH]c(N)nc3[nH]2)C(=O)O)C(=O)O)cc1 | Non-toxic | Active | Active | Active | Active | Active | > 95% | 95% | Active | Active | inactive | Non-toxic | Active | Non-toxic | Active | Non-toxic | inactive | Active | Active | Non-toxic | Activity (BMDM [20]): Active; Activity (BMDM [21]): Active; Activity [22]: Non-toxic; Activity [23]: Non-toxic; Activity (BMDM [24]): inactive; Drug metabolism [25]: metabolite_detected; Activity (BMDM [26]): Active; Activity [27]: Non-toxic; Activity [28]: Non-toxic |
| CCCCc1nc2c(N)nc3ccccc3c2n1Cc1ccc(CNC(=O)OCCSSC[C@H](NC(=O)CC[C@H](NC(=O)c2ccc(CCCCc3cc4c(=O)[nH]c(N)nc4[nH]3)cc2)C(=O)O)C(=O)O)cc1 | Non-toxic | Active | Active | Active; More Pronounced Effect Compared To Fgt-2 Observed | Active; More Pronounced Effect Compared To Fgt-2 Observed | Active; More Pronounced Effect Compared To Fgt-2,3 Observed | > 95% | 95% | Active; Most Pronounced Effect Compared To Fgt-1,2,3 Observed | Active; More Pronounced Effect Compared To Fgt-2,3 Observed | inactive | Non-toxic | Active; More Pronounced Effect Compared To Fgt-2,3 Observed | Non-toxic | Active | Non-toxic | inactive | Active; More Pronounced Effect Compared To Fgt-2,3 Observed | Active; More Pronounced Effect Compared To Fgt-2,3 Observed | Non-toxic | Activity [29]: Non-toxic; Activity (BMDM [30]): Active; Activity [31]: Non-toxic; Drug metabolism [32]: metabolite_detected; Activity (BMDM [33]): Active; Activity (BMDM [20]): Active; More Pronounced Effect Compared To Fgt-2 Observed; Survival (4T1 [34]): 35 days; Activity (BMDM [21]): Active; More Pronounced Effect Compared To Fgt-2 Observed; Activity [22]: Non-toxic; Activity [23]: Non-toxic; Activity (Mus musculus [35]): Active; Activity (BMDM [24]): inactive; Drug metabolism [25]: metabolite_detected; Activity (BMDM [26]): Active; More Pronounced Effect Compared To Fgt-2,3 Observed; Activity [27]: Non-toxic; Activity [28]: Non-toxic |
